Reference: patent publication US7053123B2, “Substituted (e)-styryl benzylsulfones for treating proliferative disorders” (Temple University-of the Commonwealth System of Higher …, priority 2000, dated 2006)

How the values were obtained:
Type in all cases: cell-based
[1] = tested on: colorectal carcinoma cell line DLD-1; assay: Tumor cell viability assay (Trypan blue exclusion), DLD-1; conditions: DLD-1 cell line, tested at 5, 10 and 20 μM, 96 hours, read-out: G150 (the concentration resulting in 50% growth inhibition)
Description: (§1) The effect of the Example 13 compound on the growth of normal fibroblasts and on tumor cells of prostate, colon, lung, brain, pancreas and breast origin was examined utilizing the following cell lines: prostate carcinoma cell line DU-145; colorectal carcinoma cell line DLD-1; non-small cell lung carcinoma cell line H157; pancreatic carcinoma cell line MIA-Pa-Ca-2; glioblastoma cell line U87; and breast adenocarcinoma cell line BT-20. BT-20 is an estrogen-unresponsive cell line. NIH/3T3 and HFL are normal murine and human fibroblasts, respectively. BT-20, DLD-1 and H157 were grown in Dulbecco's modified Eagle's medium (DMEM) containing 10% fetal bovine serum supplemented with penicillin and streptomycin. DU145 was cultured in RPMI with 10% fetal bovine serum containing penicillin and streptomycin. […]
(§2) Cells were treated with the Example 13 compound at concentrations of 100, 250, 500 and 1000 nM. Cell viability was determined after 96 hours by the Trypan blue exclusion method. […] The drug G150 (the concentration resulting in 50% growth inhibition) was calculated as 200 nM for the MIA-Pa-Ca-2 cell line.
(§3) The procedure of Example 40 was followed for the compound of Example 37, on cell lines DLD-1, H157 and BT20, at 5, 10 and 20 μM concentrations. The drug G150 was calculated for each cell line as follows: DLD, 8 μM; H157, 15 μM; and BT20, 15 μM.

[2] = tested on: non-small cell lung carcinoma cell line H157; assay: Tumor cell viability assay (Trypan blue exclusion), H157; conditions: tested at 5, 10 and 20 μM, 96 hours, read-out: G150 (the concentration resulting in 50% growth inhibition)
Description: as §1, §2, §3

[3] = tested on: breast adenocarcinoma cell line BT-20; assay: Tumor cell viability assay (Trypan blue exclusion), BT-20; conditions: BT20 cell line, tested at 5, 10 and 20 μM, 96 hours, read-out: G150 (the concentration resulting in 50% growth inhibition)
Description: as §1, §2, §3

[4] = tested on: pancreatic carcinoma cell line MIA-Pa-Ca-2; assay: Tumor cell viability assay (Trypan blue exclusion), MIA-Pa-Ca-2; conditions: MIA-Pa-Ca-2 cell line, 96 hours, vs DMSO-treated cells, read-out: G150 (the concentration resulting in 50% growth inhibition)
Description: (§4) The effect of the Example 13 compound on the growth of normal fibroblasts and on tumor cells of prostate, colon, lung, brain, pancreas and breast origin was examined utilizing the following cell lines: prostate carcinoma cell line DU-145; colorectal carcinoma cell line DLD-1; non-small cell lung carcinoma cell line H157; pancreatic carcinoma cell line MIA-Pa-Ca-2; glioblastoma cell line U87; and breast adenocarcinoma cell line BT-20. BT-20 is an estrogen-unresponsive cell line. NIH/3T3 and HFL are normal murine and human fibroblasts, respectively. BT-20, DLD-1 and H157 were grown in Dulbecco's modified Eagle's medium (DMEM) containing 10% fetal bovine serum supplemented with penicillin and streptomycin. DU145 was cultured in RPMI with 10% fetal bovine serum containing penicillin and streptomycin. NIH3T3 and HFL cells were grown in DMEM containing 10% calf serum supplemented with penicillin and streptomycin. Cells were plated at density levels of 1.0×10^5 cells per well in six-well plates. Cell cultures were maintained at 37° C. in a humidified atmosphere of 5% CO2.
as §2

[5] = tested on: HFL normal human fibroblasts; assay: Normal fibroblast viability assay (Trypan blue exclusion), HFL; conditions: normal cells HFL; treated at 100-1000 nM; 96 hours
Description: as §4, §2

[6] = tested on: NIH/3T3 normal murine fibroblasts; assay: Normal fibroblast viability assay (Trypan blue exclusion), NIH 3T3; conditions: normal cells NIH 3T3; treated at 100-1000 nM; 96 hours
Description: as §4, §2

Row | Compound | IC50 [1] | IC50 [2] | IC50 [3] | IC50 [4] | cell death [5] | growth inhibition [5] | cell death [6] | growth inhibition [6]
1 | O=[N+]([O-])c1ccccc1/C=C/S(=O)(=O)Cc1ccc(Cl)cc1Cl [Example 37, (E)-2-Nitrostyryl-2,4-dichlorobenzylsulfone] | 8 µM | 15 µM | 15 µM | – | – | – | – | –
2 | (E)-2,6-Dimethoxystyryl-4-methoxybenzylsulfone [Example 13] | – | – | – | 0.2 µM | no appreciable cell death | 5% | no appreciable cell death | 5%
